Measured values reported in patent US4673684A, “Amide derivatives and 5-lipoxygenase inhibitors containing the same as an active ingredient” (Terumo Corporation, priority 1984, dated 1987).

The compounds below were run against T1, 5-lipoxygenase (Mus musculus, UniProt P48999) (assay: 5-Lipoxygenase-inhibiting Activity (decrease in 5-HETE and LTB4 formed from radiolabelled arachidonic acid, enzyme solution from mouse mastcytoma cells P-815)). Conditions: 5-HETE and LTB4 formation; mouse mastcytoma P-815 enzyme solution; 37° C., 5 min; pH 7.4; with indomethacin; read-out: 50% Inhibitory concentration IC50.
T1 construct: The supernatant is used as a 5-lipogenase enzyme solution; endogenous in cells
T1 sequence (P48999 1-674): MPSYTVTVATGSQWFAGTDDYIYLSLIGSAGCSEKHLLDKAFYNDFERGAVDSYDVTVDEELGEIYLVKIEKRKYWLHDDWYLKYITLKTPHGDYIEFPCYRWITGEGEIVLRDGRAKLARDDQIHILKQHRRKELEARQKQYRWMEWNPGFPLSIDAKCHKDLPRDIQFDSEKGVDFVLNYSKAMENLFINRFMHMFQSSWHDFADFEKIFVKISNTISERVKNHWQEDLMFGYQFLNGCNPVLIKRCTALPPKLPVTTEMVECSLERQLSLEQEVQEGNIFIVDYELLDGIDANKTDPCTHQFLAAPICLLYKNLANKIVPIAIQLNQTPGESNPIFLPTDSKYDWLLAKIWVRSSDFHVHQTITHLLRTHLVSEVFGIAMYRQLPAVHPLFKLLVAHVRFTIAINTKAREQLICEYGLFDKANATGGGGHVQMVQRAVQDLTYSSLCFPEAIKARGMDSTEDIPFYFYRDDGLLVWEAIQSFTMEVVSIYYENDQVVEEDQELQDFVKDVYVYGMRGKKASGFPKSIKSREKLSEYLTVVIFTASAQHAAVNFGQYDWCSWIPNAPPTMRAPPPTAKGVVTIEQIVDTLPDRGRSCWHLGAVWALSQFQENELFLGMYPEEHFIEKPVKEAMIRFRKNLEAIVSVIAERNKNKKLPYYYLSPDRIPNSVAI
Type: biochemical
Experimental: Mouse mastcytoma cells P-815 are diluted in a culture solution, containing 90% Eagle Basic Medium (manufactured by Gibco Laboratories) to 5×10^4 cells/ml. The diluted solution is cultivated with shaking in air at 37° C. for 48 hours. Then, the culture solution is cooled with ice and centrifuged to collect the cells. The cells are suspended in a phosphate buffer solution at pH 7.4 at a concentration of 2×10^7 cells/ml. The suspension is treated in a ultrasonic cell disintegrater and then centrifuged at 10,000 r.p.m. for 10 min. The supernatant is used as a 5-lipogenase enzyme solution. In test tubes are placed 20 μl of radiolabelled arachidonic acid ([…]), indomethacin (2×10^-8 mol) and an amide derivative to be tested, respectively. To each of the test tubes are added 0.45 ml of a phosphate buffer solution, 0.45 ml of the above-prepared suspension, 0.45 ml of the above-prepared enzyme solution and 0.1 ml of 8 mM CaCl2 (calcium chloride). The mixture is reacted at 37° C. for 5 min. After cooled with ice, 60 μl of 1N-HCl (hydrochloric acid is added to the reaction mixture, which is then extracted with 8 ml of ethyl acetate. The extract is concentrated, and the concentrate is developed by spotting on a silica gel thin layer plate (Merck 60F 254). Measurement of the inhibitory activity is made by collecting fractions corresponding to lipoxygenase products 5-HETE (5(s)-hydroxy-6,8,11,14-eicosatetraenic acid) and LTB4 (leucotriene B4) and determining the radioactivity by a liquid scintillation counter. The lipoxygenase inhibiting activity is determined by decrease in the amount of the above-mentioned 5-lipoxygenaseproducts. […] 50% inhibitory concentration or 30% inhibitory concentration as indicated in the table means the concentration of an amide derivative required for reducing the amount of the above-mentioned 5-lipoxygenase products (5-HETE and LTB4) to 50% or 30% of the amount when the amount of 5-HETE and LTB4 produced in the absenced of the amide derivative is 100%.
In the case of `COc1cc(/C=C/C(=O)NCCN2CCN(C(c3ccccc3)c3ccc(Cl)cc3)CC2)ccc1O` (centres unmarked) [Example 1, N-(p-chlorobenzhydryl)-N'-[2-{3-(3-methoxy-4-hydroxyphenyl)-2-propenoyl}-aminoethyl]piperazine], the IC50 is reported as 500 nM. In the case of `COc1cc(/C=C/C(=O)NCCN2CCN(C(c3ccccc3)c3ccccc3)CC2)ccc1O` [Example 2, N-benzhydryl-N'-[2-{3-(3-methoxy-4-β-hydroxyphenyl)-2-propenoyl}aminoethyl]piperazine], the IC50 is reported as 600 nM. For `CC/C=C\C/C=C\C/C=C\CCCCCCCC(=O)NCCCCNC(=O)/C=C/c1ccc(O)c(OC)c1` [Example 3, N-[3-(3-methoxy-4-hydroxyphenyl)-2-propenoyl]-N'-[9,12,15-octadecatrienoyl]-1,4-diaminobutan], the IC50 was 900 nM. Compound `COc1cc(/C=C/C(=O)NCCCCNC(=O)/C=C/c2ccc(O)c(OC)c2)ccc1O` [Example 4, N,N'-bis-{3-(3-methoxy-4-hydroxyphenyl)-2-propenoyl}-1,4-diaminobutane] has an IC50 of 2000 nM. In the case of `CC(=O)OCc1cnc(C)c(O)c1CNC(=O)/C=C/c1ccc(O)c(O)c1` [Example 5, N-caffeoyl-o-acetylpyridoxane], the IC50 is reported as 1000 nM. With `CC/C=C\C/C=C\C/C=C\C/C=C\C/C=C\C/C=C\CCC(=O)NCCCCNC(=O)/C=C/c1ccc(O)c(O)c1` [Example 6, N-[3-(3,4-dihydroxyphenyl)-2-propenoyl]-N'-[4,7,10,13,16,19-docosahexaenoyl]1,4-diaminobutane] the IC50 was 60 nM. For `O=C(/C=C/c1ccc(O)c(O)c1)NCCCCNC(=O)/C=C/c1ccc(O)c(O)c1` [Example 7, N,N'-bis-[(3,4-dihydroxyphenyl)-2-propenoyl]-1,4-diaminobutane], the IC50 was 500 nM. Work on `O=C(/C=C/c1ccc(O)c(O)c1)N1CCN(C(c2ccccc2)c2ccccc2)CC1` [Example 8, N-benzhydryl-N'-{(3,4-dihydroxyphenyl)-2-propenoyl}-piperazine] yielded an IC50 of 100 nM. In the case of `O=C(/C=C/c1ccc(O)c(O)c1)NCCN1CCN(C(c2ccccc2)c2ccccc2)CC1` [Example 9, N-benzhydryl-N'-[2-{3-(3,4-dihydroxyphenyl)-2-propenoyl}-aminoethyl]piperazine], the IC50 is reported as 100 nM. `O=C(/C=C/c1ccc(O)c(O)c1)Nc1cc(Cl)ccc1O` [Example 10, N-{3-(3,4-dihydroxyphenyl)-2-propenoyl}-5-chloro-2-hydroxyaniline] gave an IC50 of 30 nM. With `O=C(/C=C/c1ccc(O)c(O)c1)Nc1ccccc1O` [Example 11, N-{3-(3,4-dihydroxyphenyl)-2-propenoyl}-o-aminophenol] the IC50 was 40 nM. For `O=C(/C=C/c1ccc(O)c(O)c1)NCCN1CCN(C(c2ccccc2)c2ccc(Cl)cc2)CC1` (centres unmarked) [Example 12, N-(p-chlorobenzhydryl)-N'-[2-{3-(3,4-dihydroxyphenyl)-2-propenoyl}aminoethyl]piperazine], the IC50 was 80 nM. `COc1cc(/C=C/C=C/C(=O)Nc2ccccc2C(=O)O)ccc1O` [Example 13, N-5-(3-methoxy-4-hydroxyphenyl)-2,4-pentadienoylanthranilic acid] was tested, and the IC50 was 600 nM. With `COc1cc(/C=C/C=C/C(=O)NCCCCNC(=O)/C=C/C=C/c2ccc(O)c(OC)c2)ccc1O` [Example 14, N,N'-di{5-(3-methoxy-4-hydroxyphenyl)-2,4-pentadienoyl}-1,4-diaminobutane] the IC50 was 100 nM. `COc1cc(/C=C/C=C/C(=O)N2CCN(C(c3ccccc3)c3ccccc3)CC2)ccc1O` [Example 15, 1-benzhydryl-4-{5-(3-methoxy-4-hydroxyphenyl)-2,4-pentadienoyl}piperazene] gave an IC50 of 90 nM. With `COc1cc(/C=C/C=C/C(=O)NCCN2CCN(C(c3ccccc3)c3ccc(Cl)cc3)CC2)ccc1O` (centres unmarked) [Example 16, N-(p-chlorobenzhydryl)-N'-[2-{5-(3-methoxy-4-hydroxyphenyl)-2,4-pentadienoyl}aminoethyl]piperazine] the IC50 was 60 nM. Work on `COc1cc(/C=C/C=C/C(=O)NCc2c(CO)cnc(C)c2O)ccc1O` [Example 17] yielded an IC50 of 4000 nM. `COc1cc(/C=C/C=C/C(=O)NCCCCNC(C)=O)ccc1O` [Example 18, N-{5-(3-methoxy-4-hydroxyphenyl)-2,4-pentadienoyl}-N'-acetyl-1,4-diaminobutane] gave an IC50 of 6000 nM. `CC/C=C\C/C=C\C/C=C\CCCCCCCC(=O)NCCCCNC(=O)/C=C/C=C/c1ccc(O)c(OC)c1` [Example 19, N-{5-(3-methoxy-4-hydroxyphenyl)-2,4-pentadienoyl}-N'-9,12,15-octadecatrienoyl-1,4-diaminobutane] was tested, and the IC50 was 200 nM. For `CC(=O)NCCCCNC(=O)/C=C/C=C/c1ccc(O)c(O)c1` [Example 20, N-{5-(3,4-dihydroxyphenyl)-2,4-pentadienoyl}-N'-acetyl-1,4-diaminobutane], the IC50 was 1000 nM. Work on `O=C(/C=C/C=C/c1ccc(O)c(O)c1)NCCCCNC(=O)/C=C/C=C/c1ccc(O)c(O)c1` [Example 21, N,N'-di[5-(3,4-dihydroxyphenyl)-2,4-pentadienoyl]-1,4-diaminobutane] yielded an IC50 of 30 nM. `CC/C=C\C/C=C\C/C=C\C/C=C\C/C=C\C/C=C\CCC(=O)NCCCCNC(=O)/C=C/C=C/c1ccc(O)c(O)c1` [Example 22, N-5-(3,4-dihydroxyphenyl)-2,4-pentadienoyl-N'-4,7,10,13,16,19-docosahexaenoyl-1,4-diaminobutane] was tested, and the IC50 was 40 nM. `CC/C=C\C/C=C\C/C=C\CCCCCCCC(=O)NCCCCNC(=O)/C=C/C=C/c1ccc(O)c(O)c1` [Example 23, N-5-(3,4-dihydroxyphenyl)2,4-pentadienoyl-N'-9,12,15-octadecatrienoyl-1,4-diaminobutane] showed an IC50 of 20 nM. `O=C(/C=C/C=C/c1ccc(O)c(O)c1)Nc1ccccc1C(=O)O` [Example 24, N-5-(3,4-dihydroxyphenyl)-2,4-pentadienoylanthranilic acid] showed an IC50 of 100 nM. Compound `O=C(/C=C/C=C/c1ccc(O)c(O)c1)Nc1ccc(O)cc1` [Example 25, N-5-(3,4-dihydroxyphenyl)-2,4-pentadienoylaminophenol] has an IC50 of 80 nM. With `O=C(/C=C/C=C/c1ccc(O)c(O)c1)N1CCN(C(c2ccccc2)c2ccccc2)CC1` [Example 26] the IC50 was 40 nM. Work on `O=C(/C=C/C=C/c1ccc(O)c(O)c1)NCCN1CCN(C(c2ccccc2)c2ccccc2)CC1` [Example 27, N-benzhydryl-N'-[2-{5-(3,4-dihydroxyphenyl)-2,4-pentadienoyl}aminoethyl]piperazine] yielded an IC50 of 7 nM. `O=C(/C=C/C=C/c1ccc(O)c(O)c1)NCCN1CCN(C(c2ccccc2)c2ccc(Cl)cc2)CC1` (centres unmarked) [Example 28] was tested, and the IC50 was 10 nM. With `COc1cc(/C=C/C(=O)NCCCN2CCN(C(c3ccccc3)c3ccccc3)CC2)ccc1O` [Example 34] the IC50 was 300 nM. Compound `COc1cc(/C=C/C(=O)NCCCCNC(=O)c2ccccc2N)ccc1O` [Example 35, N-3-[3-methoxy-4-hydroxy]pyenyl-2-butenoyl-N'-(2-amino)benzoylptolesine] has an IC50 of 20000 nM. For `COc1cc(/C=C/C(=O)NCCN2CCN(C(=O)c3ccccc3N)CC2)ccc1O` [Example 36, N-(o-aminobenzoyl)-N'-[2-[3-[3-methoxy-4-hydroxyphenyl)-2-propenoyl]aminoethyl]piperazine], the IC50 was 200000 nM. `O=C(/C=C/c1ccc(O)c(O)c1)NCCCN1CCN(C(c2ccccc2)c2ccccc2)CC1` [Example 37, N-benzhydryl-N'-[{3-(3,4-dihydroxyphenyl)-2-propenoyl}-aminopropyl]piperazine] showed an IC50 of 30 nM.
